Values joined by “and” are separate entries in the source; they are usually repeats but may differ in a detail not shown here. Equal entries are not always repeated.
Legend:
[1] = tested on: Collagenase type IV; experiment: Assay of Collagenase (DQ-gelatin fluorescence); assay type: biochemical; conditions: DQ-gelatin substrate
Description: Collagenase type IV and DQ-gelatin was applied in this experiment, where DQ^198 (EnzChek Gelatinase/Collagenase Assay Kit, E-12055) is a kind of fluorescent material, which can bonded with gelatin to form DQ-gelatin. […] Thus, the principle of this experiment is that the activity of collagenase is examined by measuring emission intensity of DQ fluorescent as that the chemical bonding between DQ-gelatin can be enzymatically digested by collagenase.
The fluorescence intensity can be measured in a florescence micro-plate reader equipped with standard fluoresce in filters. Digested product from the DQ-gelatin and DQ collagen substrate has absorption wavelength at 495 nm and fluorescence emission wavelength at 515 nm. Therefore, the activity of collagenase can be determined when the fluorescence emission intensity at 515 nm larger than the blank. In other word, the resulting fluorescence emission intensity would decrease at 515 nm if the collagenase inhibitors were applied. The results of collagenase assay are provided on Table 7, and all values are present as Mean±S.E.M.

[2] = tested on: HT-1080 cell lines; experiment: MTT cell viability assay; assay type: cell-based, human; conditions: HT-1080, 22 h + 2 h MTT, blank = 100, mean ± S.E.M.
Description: (§1) HT-1080 cell line (ATCC:CCL-121) is a human skin fibroblasts tumor, which is a kind of adherent cell lines, secreting gelatinase, MMP-2 and MMP-9, to extracellular space.
(§2) Before carrying out any experimental process of HT-1080 cell lines, in order to enable HT-1080 cells to secrete more MMP-2 and MMP-9 to extracellular space, the medium RPMI-1640 containing 0.5% FBS (without phenol red) was applied when conducting the subcultivation process. After centrifugation, the medium RPMI-1640 containing only 0.5% FBS was added into centrifugal vials to resuspend the cells, and 20 μL of cell suspension solution was transferred into eppendorfs to mixed with 20 μL Trypan blue for cell dyeing. Finally, calculation of the cell concentration was accomplished by using hemocytometer through optical microscope.
(§3) Suitable amount of the medium RPMI-1640 (based on the cell concentration obtained previous) containing only 0.5% FBS (without phenol red) was applied into the remaining the cell suspension solution, as the resulting concentration of the cell suspension solution around 5×10^5 cells/mL. Afterwards, 500 μL of cell suspension solutions was transferred onto 24-well cell culture plates, followed by 24 hours incubation at 37° C. for the further experiments.
To test the cytotoxicity of 4GX and 4G to HT-1080 cell lines, the cell viability assay need to be conducted. MTT cell viability assay was chosen for this experiment.
The principle of a cell viability assay is the conversion of a yellow tetrazolium salt (MTT; 3-(4,5-Dimethylthiazol-2-yl)-2,5-diphenyl tetrazolium bromide) into a purple product formazan via […] in intact mitochondria, where formazan can be dissolved in dimethylsulfoxide (DMSO). Thus, the increasing yield of resulting product formazan stands for increasing the percentage of cell vitality.
The cell suspension solution (with concentration about 5×10^5 cells/mL) of the previous cell pre-treatment process was placed to a 24-well cell culture plates with 24 hours of incubation under 5% of CO2/air at 37° C. in 70% of humidity, in order to allow cells to grow adherent on the well. After 24 hours of incubation, 1 μL of the solutions containing chemical compounds, 4GX and 4G, prepared in different concentrations (5-100 μM) were applied into each well respectively as vehicle controls, whereas the well applied without any chemical compounds as blank. Finally, the 24-well cell culture plate was placed in incubator for 22 hours of incubation.
Subsequently, the following steps need to avoid the light. After 22 hours of incubation, 50 μL of 5.5 mg/mL MTT was applied in each well for 2 hours of incubation at 37° C. Afterwards, the supernatant was removed from 24-well cell culture plates, and 400 μL DMSO was applied to dissolve the purple product formazan for 15 minutes by shaker at 50 rpm. 150-200 μL of the solution were taken out from each well to examine the adsorption value by ELISA at wavelength 550 nm.
The formula for calculation of cell vitality is presented following: (Adsorption value of vehicle control/blank)×100%

[3] = tested on: pro MMP-9; experiment: Gelatin zymography of HT-1080 supernatants, pro MMP-9; assay type: cell-based, human; conditions: HT-1080 supernatant; for Inhibitory effectiveness (%) pro MMP-9: 24 h; for IC50: gelatin zymography
Description: as §1, §2, §3
(§4) To evaluation the inhibitory effectiveness of gelatinase of 4GX and 4G, a gelatin zymography is needed to be conducted.
(§5) The cell suspension solution (with concentration about 5×10^5 cells/mL) of the previous cell pre-treatment process was placed to a 24-well cell culture plates for 24 hours of incubation at 37° C. Subsequently, 1 μL of the solutions, containing 4GX and 4G, in different concentrations from 10 to 100 μM (10, 20, 50, 100 μM) were applied into each well respectively as vehicle controls, 1 μL of catechin in concentration of 100 μM was applied into the well as a positive control, whereas the well applied without any compounds is as blank, followed by 24 hours of incubation at 37° C. Afterwards, the plate was placed into ice to terminate the reaction, the supernatant of each well were taken out separately for the further experiments.
(§6) Supernatants and two volume of a sample loading dye (500 mM Tris-HCL, 25% Glycerol, 10% SDS, 0.32% Bromophenol blue, pH 6.8) and one volume of a dye were mixed together to use as the indicator of running end point. Afterwards, the enzyme activity was analyzed by polyacrylamide gel electrophoresis (PAGE).
(§7) 1% of gelatin and 10% of polyacrylamide were contained in the gel of PAGE, where gelatin acts as the substrate for gelatinase (pro MMP-2, MMP-2 and pro MMP-9). The running buffer was 25 mM Tris-base, 192 mM […] and 0.1% sodium dodecyl sulfate (SDS), pH 8.3, and the power supply was 125 V/80 mA.
(§8) Following the electrophoresis, the gel was washed with 2.5% Triton X-100 at 24° C. twice in 30 minutes to remove the dye and SDS from the gel. Afterwards, the gel was incubated with a reacting buffer (50 mM Tris-base, 200 mM NaCl, 5 mM CaCl2 and 0.02% Brij 35, pH 7.5) at 37° C. for 24 hours in a thermostatic cabinet, enabling gelatinase enzymatically react with gelatin. The fixing solution (7% acetic acid and 40% methanol) was subsequently applied to the gel for 30 minutes, in order to secure the proteins onto the gel. After 30 minutes, the gel was stained with Brilliant Blue G-Colloidial, and then destained with the destain solution (10% acetic acid and 40% methanol) for visualization of the gelatinase reactive positions against the background of the gel.
(§9) Finally, the gel was then analyzed by image analysis system (Vilber Lounmat, France), and the analysis software was Bio-1 Dversion 99. Setting the blank as reference, setting as 1, and the other groups are presented in relative values in contrast to blank.
(§10) The formula for calculating the inhibitory effectiveness is presented below. The results of gelatin zymography are provided on Table 6, and all values are presented as Mean±S.E.M. (the values of blank−vehicle controls)×100%

[4] = tested on: MMP-2; experiment: Gelatin zymography of HT-1080 supernatants, MMP-2; assay type: cell-based, human; conditions: HT-1080 supernatant; for Inhibitory effectiveness (%) MMP-2: 24 h; for IC50: gelatin zymography
Description: as §1, §2, §3, §4, §5, §6, §7, §8, §9, §10

[5] = tested on: pro MMP-2; experiment: Gelatin zymography of HT-1080 supernatants, pro MMP-2; assay type: cell-based, human; conditions: HT-1080 supernatant; for Inhibitory effectiveness (%) Pro MMP-2: 24 h; for IC50: gelatin zymography
Description: as §1, §2, §3, §4, §5, §6, §7, §8, §9, §10

[6] = Transdermal penetration test, Franz-type diffusion cell; assay type: in vitro ADME, mice; conditions: for Average (μg) amount of 4G in the skins: average of three
Description: Franz-type diffusion cell is the apparatus for this experiment, where its structure as a set of vertical double-diffusion and detachable glass containers. The upper donor chamber is a hollow cylindrical for the sample injection, and the bottom of the upper donor chamber has a contacting surface. The lower receptor chamber is double-layered hollow cylindrical diffusion container, where the inner layer of the receptor chamber made of glass contains a fluid for sampling, the outer layer of the receptor chamber is filled with circulating water kept at 37±1° C. for the human body simulation. The contact area between the donor chamber and the receptor chamber is 0.785 cm^2 (the actual penetration area), and the intermediate is fixed with nude and white mice (all three) skins (epidermis facing upwards) by metal clips as the in vitro transdermal penetration barriers.
The experimental method is presented below. First, 4G was dissolved in 30 wt % propylene glycol aqueous solution, followed transferring 0.5 mL of the aqueous solution (containing 0.25 mg) of 4G into the donor chamber of the Franz-type diffusion cell, and top of the open-ended donor chamber was covered with Parafilm® tightly, and the inner receptor chamber was filled with 5.5 mL of the buffer solution (30 wt % ethanol, phosphate buffer solution, pH 7.4), with continuously stirring at 600 rpm. 0.3 mL of the buffer solution was respectively sampled at time points of 1, 2, 4, 6, 8, 10, 12, 24, 36, and 48 hours, and with complete replacement of 0.3 mL of the buffer solution to keep fluid in the diffusion cell the same volume. Finally, the final compound of 4G accumulated in the fluid of the receptor chamber, was analyzed by liquid chromatography tandem mass spectrometry (LC-MS) to investigate the amount of the 4G penetrating through skins and reaching to the blood vessel,
After completing the previous experimental step, the compound, 4G, on the surface of nude and white mice skin were washed with deionized water. Afterwards, the skins were trimmed into the circles with diameter equal to the donor chamber, and following record the skin weight. The skins then placed in homogenizer with 1 mL alcohol at speed 300 rpm for 5 minutes, and followed with centrifugation process at 10000 rpm for 5 minutes. The supernatant was filtered by 0.45 μm PVDF and quantified the content of 4G by LC-MS.

Compound | Inhibitory effectiveness % (collagenase) ([1]; 20 μM) | Inhibitory effectiveness % (collagenase) ([1]; 40 μM) [%] | Vitality (%) ([2]; 10 μM) | Vitality (%) ([2]; 20 μM) | Vitality (%) ([2]; 50 μM) | Vitality (%) ([2]; 100 μM) | Inhibitory effectiveness (%) pro MMP-9 ([3]; 10 μM) [%] | Inhibitory effectiveness (%) pro MMP-9 ([3]; 20 μM) [%] | Inhibitory effectiveness (%) pro MMP-9 ([3]; 50 μM) [%] | Inhibitory effectiveness (%) pro MMP-9 ([3]; 100 μM) | IC50 [3] [µM] | Inhibitory effectiveness (%) MMP-2 ([4]; 10 μM) [%] | Inhibitory effectiveness (%) MMP-2 ([4]; 20 μM) [%] | Inhibitory effectiveness (%) MMP-2 ([4]; 50 μM) [%] | IC50 [4] [µM] | Inhibitory effectiveness (%) Pro MMP-2 ([5]; 10 μM) [%] | Inhibitory effectiveness (%) Pro MMP-2 ([5]; 20 μM) [%] | Inhibitory effectiveness (%) Pro MMP-2 ([5]; 50 μM) [%] | Inhibitory effectiveness (%) Pro MMP-2 ([5]; 100 μM) | IC50 [5] [µM] | further results
c1cnc2c(c1)ccc1cccnc12 [1, 10-phenanthroline, reference compound] | 12.80% | 38.41 |  |  |  |  |  |  |  |  |  |  |  |  |  |  |  |  |  |  | 
O=C(OC[C@H]1O[C@@H](OC(=O)c2cc(O)c(O)c(O)c2)[C@H](OC(=O)c2cc(O)c(O)c(O)c2)[C@@H](OC(=O)c2cc(O)c(O)c(O)c2)[C@@H]1O)c1cc(O)c(O)c(O)c1 [4G, 1,2,3,6-tetra-O-galloyl-β-D-glucose] | 50% and 52.12% | 61.73 | 93.45 ± 4.91 | 87.30 ± 1.93 | 93.06 ± 4.41 | 87.81 ± 7.83 | 18.73 | 28.70 | 44.13 | 53.50% | > 100 | 29.93 | 48.07 | 73.27 | 23 | 10.13 | 16.80 | 30.13 | 39.40% | 99.6 | accumulated amounts of 4G of the fluid in the receptor chamber ([6]; nude and white mice skins, sampled 1 to 48 hours, LC-MS): nearly zero; Percentage of 4G in the mouse skins ([6]; nude mice skin): 27.84%; Average (μg) amount of 4G in the skins ([6]; nude mice skin): 1.17 ± 0.21 µg; The amount of 4G in the skins ([6]; nude mice skin, single samples, 0.25 mg in donor chamber, after 48 hours): 1.42 µg and 1.02 µg and 1.09 µg; Percentage of 4G in the mouse skins ([6]; white mice skin): 74.84%; Average (μg) amount of 4G in the skins ([6]; white mice skin): 6.07 ± 2.43 µg
O=C(OCC1OC(OC(=O)c2cc(O)c(O)c(O)c2)C(OC(=O)c2cc(O)c(O)c(O)c2)C(OC(=O)c2cc(O)c(O)c(O)c2)C1OC(=O)c1ccc(O)cc1)c1cc(O)c(O)c(O)c1 [4GX, 1,2,3,6-tetra-O-galloyl-4-O-(4-hydroxybenzoyl)-β-D-glucopyranoside] |  |  | 97.18 ± 6.52 | 100.78 ± 4.06 | 105.48 ± 2.18 | 94.31 ± 9.76 | 3.80 | 15.83 | 32.17 | 45.47% | > 100 | 25.46 | 63.57 | 76.20 | 16.3 | 15.83 | 31.53 | 62.30 |  | 30 | 
catechin [reference compound] |  |  |  |  |  |  |  |  |  | 64.30% and 76.07% |  |  |  |  |  |  |  |  | 56.30% and 72.97% |  | Inhibitory effectiveness (%) MMP-2 ([4]; 100 μM): 86.77% and 85.00%

Source: patent US8486898B2, “Compounds and method for inhibiting the activity of gelatinase and collagenase” (Taipei Medical University (TMU), priority 2010, dated 2013)
